In ChEMBL document CHEMBL1151139, “Bullatacin, bullatacinone, and squamone, a new bioactive acetogenin, from the bark of Annona squamosa” (J Nat Prod, 1990):
≈ marks a conversion by molar mass, not a printed value.

Tests used:
MCF7 [1] = experiment: Cytotoxicity against human MCF7 cells; assay type: functional; settings: for EC50: Homo sapiens, MCF7, read-out: ED50 (the source's name)
HT-29 = experiment: Cytotoxicity against human HT-29 cells; assay type: functional; settings: read-out: ED50 (the source's name)
A549 = experiment: Cytotoxicity against human A549 cells; assay type: functional; settings: for EC50: Homo sapiens, A549, read-out: ED50 (the source's name)
[2] = Toxicity against brine shrimp; assay type: organism-based; settings: artemia, in vivo; read-out: ED50 (the source's name)
MCF7 [3] = experiment: Selectivity index, ratio of IC50 for human HT-29 cells to IC50 for human MCF7 cells; assay type: functional
MCF7 [4] = experiment: Selectivity index, ratio of IC50 for human A549 cells to IC50 for human MCF7 cells; assay type: functional

Row | SMILES | ED50 (MCF7 [1]) [×10⁻⁷ ug/ml] | EC50 (HT-29) [µg/mL] | ED50 (A549) [×10⁻⁴ ug/ml] | EC50 (MCF7 [1]) [µg/mL] | EC50 (A549) [µg/mL] | LC50 [2] [µg/mL] | Ratio ED50 (MCF7 [3]) | Ratio ED50 (MCF7 [4])
1 | CCCCCCCCCC[C@H](O)[C@H]1CC[C@H]([C@H]2CC[C@H]([C@H](O)CCCCCCCCCC[C@@H]3CC(CC(C)=O)C(=O)O3)O2)O1 (some centres undefined) [BULLATACINONE] | <1 | < 0.001 | 1.44 | – | – | – | – | –
2 | COc1cccc2c1C(=O)c1c(O)c3c(c(O)c1C2=O)C[C@@](O)(C(=O)CO)C[C@@H]3O[C@H]1C[C@H](N)[C@H](O)[C@H](C)O1 [DOXORUBICIN] | – | 0.0301 (≈ 0.0554 µM) | – | 0.029 (≈ 0.0534 µM) | 0.00696 (≈ 0.0128 µM) | – | – | –
3 | CCCCCCCCCCCC[C@H](O)[C@@H]1CC[C@@H]([C@@H](O)CCCCCC(=O)CCCCC2CC(CC(C)=O)C(=O)O2)O1 (some centres undefined) [SQUAMONE] | – | 1.5 (≈ 2.52 µM) | – | – | – | 2.1 (≈ 3.53 µM) | – | –
4 | CCCCCCCCCCCC[C@H](O)[C@@H]1CC[C@@H]([C@@H](O)CCCCCC(O)CCCCC2CC(CC(C)O)C(=O)O2)O1 (some centres undefined) [TETRAHYDROSQUAMONE] | – | 0.298 (≈ 0.498 µM) | – | 0.00989 (≈ 0.0165 µM) | 0.141 (≈ 0.235 µM) | 2.7 (≈ 4.51 µM) | 100 | 100
